Laboratory results reported in patent US10934302B1, “SHP2 phosphatase inhibitors and methods of use thereof” (Relay Therapeutics, Inc., priority 2018, dated 2021).
pIC50: −log10 of the molar value.

These compounds were tested against SHP2 (Homo sapiens (Human), UniProt Q06124) (assay: SHP2 allosteric inhibition assay (DiFMUP prompt fluorescence)). Conditions: 0.25 nM SHP2 activated with 0.5 μM peptide IRS1_pY1172(dPEG8)pY1222; substrate DiFMUP.
Format: biochemical

Sequence of SHP2 (Q06124 whole entry): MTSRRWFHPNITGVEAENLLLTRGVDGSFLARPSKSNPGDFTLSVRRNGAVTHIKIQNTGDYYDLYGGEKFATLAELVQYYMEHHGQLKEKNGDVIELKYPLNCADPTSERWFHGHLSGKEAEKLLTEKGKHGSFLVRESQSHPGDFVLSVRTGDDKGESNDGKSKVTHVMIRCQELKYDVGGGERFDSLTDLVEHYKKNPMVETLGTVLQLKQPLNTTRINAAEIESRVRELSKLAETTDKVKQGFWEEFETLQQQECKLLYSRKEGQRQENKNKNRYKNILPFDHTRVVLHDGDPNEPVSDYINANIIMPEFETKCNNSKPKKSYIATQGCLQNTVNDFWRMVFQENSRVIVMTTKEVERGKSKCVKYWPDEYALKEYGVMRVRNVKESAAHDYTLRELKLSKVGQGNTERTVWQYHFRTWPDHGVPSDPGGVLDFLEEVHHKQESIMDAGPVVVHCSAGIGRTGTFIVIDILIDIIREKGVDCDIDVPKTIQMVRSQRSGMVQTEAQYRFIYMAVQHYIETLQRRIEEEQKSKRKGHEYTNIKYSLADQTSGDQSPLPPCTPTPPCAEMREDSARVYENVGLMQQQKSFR

**Q.** How did the pIC50 turn out when `Cc1c(-c2ccccc2Cl)nc2sc(N3CCC4(CC3)Cc3ccccc3[C@H]4N)nn12` [Example 144, (S)-1′-(6-(2-chlorophenyl)-5-methylimidazo[2,1-b][1,3,4]thiadiazol-2-yl)-1,3-dihydrospiro[indene-2,4′-piperidin]-1-amine] was run?
**A.** ≥ 7.30

**Q.** With `N[C@@H]1c2ccccc2CC12CCN(c1ncc(-c3ccccc3Cl)s1)CC2` [Example 145, (S)-1′-(5-(2-chlorophenyl)thiazol-2-yl)-1,3-dihydrospiro[indene-2,4′-piperidin]-1-amine] as the compound, how does the pIC50 read?
**A.** ≥ 7.30

**Q.** With `N[C@@H]1c2ccccc2CC12CCN(c1cnc(N3CCCc4ncccc43)cn1)CC2` [Example 146, (3S)-1′-[5-(1,2,3,4-tetrahydro-1,5-naphthyridin-1-yl)pyrazin-2-yl]-1,3-dihydrospiro[indene-2,4′-piperidin]-3-amine] as the compound, how does the pIC50 read?
**A.** ≥ 7.30

**Q.** With `N[C@@H]1c2ccccc2CC12CCN(c1cnc(Sc3cccc(Cl)c3Cl)cn1)CC2` [Example 147, (S)-1′-(5-((2,3-dichlorophenyl)thio)pyrazin-2-yl)-1,3-dihydrospiro[indene-2,4′-piperidin]-1-amine] as the compound, how does the pIC50 read?
**A.** ≥ 7.30

**Q.** With `CN(c1ccnc(N)c1)c1n[nH]c2nc(N3CCC4(CC3)Cc3ccccc3[C@H]4N)cnc12` [Example 148, (S)—N4-(6-(1-amino-1,3-dihydrospiro[indene-2,4′-piperidin]-1′-yl)-1H-pyrazolo[3,4-b]pyrazin-3-yl)-N4-methylpyridine-2,4-diamine] as the compound, how does the pIC50 read?
**A.** ≥ 7.30

**Q.** `Cc1nc2c(N3CCCc4nc(-c5cnn(C)c5)ccc43)n[nH]c2nc1N1CCC2(CC1)Cc1ccccc1[C@H]2N` [Example 149, (3S)-1′-{5-methyl-3-[6-(1-methyl-1H-pyrazol-4-yl)-1,2,3,4-tetrahydro-1,5-naphthyridin-1-yl]-1H-pyrazolo[3,4-b]pyrazin-6-yl}-1,3-dihydrospiro[indene-2,4′-piperidin]-3-amine] was tested. Which pIC50 did it give?
**A.** ≥ 7.30

**Q.** With `Cc1nc2c(N3CCCCC3)n[nH]c2nc1N1CCC2(CC1)Cc1ccccc1[C@H]2N` [Example 152, (3S)-1′-[5-methyl-3-(piperidin-1-yl)-1H-pyrazolo[3,4-b]pyrazin-6-yl]-1,3-dihydrospiro[indene-2,4′-piperidin]-3-amine] as the compound, how does the pIC50 read?
**A.** ≥ 7.30

**Q.** With `N#CCc1n[nH]c2nc(N3CCC4(CC3)Cc3ccccc3[C@H]4N)c(CO)nc12` [Example 153, 2-{6-[(3S)-3-amino-1,3-dihydrospiro[indene-2,4′-piperidin]-1′-yl]-5-(hydroxymethyl)-1H-pyrazolo[3,4-b]pyrazin-3-yl}acetonitrile] as the compound, how does the pIC50 read?
**A.** ≥ 7.30

**Q.** `N#Cc1n[nH]c2nc(N3CCC4(CC3)Cc3ccccc3[C@H]4N)c(CO)nc12` [Example 154, 6-[(3S)-3-amino-1,3-dihydrospiro[indene-2,4′-piperidin]-1′-yl]-5-(hydroxymethyl)-1H-pyrazolo[3,4-b]pyrazine-3-carbonitrile] was tested. Which pIC50 did it give?
**A.** ≥ 7.30

**Q.** `CNC(=O)c1n[nH]c2nc(N3CCC4(CC3)Cc3ccccc3[C@H]4N)c(CO)nc12` [Example 155, 6-[(3S)-3-amino-1,3-dihydrospiro[indene-2,4′-piperidin]-1′-yl]-5-(hydroxymethyl)-N-methyl-1H-pyrazolo[3,4-b]pyrazine-3-carboxamide] was tested. Which pIC50 did it give?
**A.** ≥ 7.30

**Q.** With `Cc1n[nH]c2nc(N3CCC4(CC3)Cc3ccccc3[C@H]4N)c(CO)nc12` [Example 156, {6-[(3S)-3-amino-1,3-dihydrospiro[indene-2,4′-piperidin]-1′-yl]-3-methyl-1H-pyrazolo[3,4-b]pyrazin-5-yl}methanol] as the compound, how does the pIC50 read?
**A.** ≥ 7.30

**Q.** How did the pIC50 turn out when `N[C@@H]1c2ccccc2CC12CCN(c1cnc(Cc3ccnc(Cl)c3Cl)cn1)CC2` [Example 157, (3S)-1′-{5-[(2,3-dichloropyridin-4-YL)methyl]pyrazin-2-yl}-1,3-dihydrospiro[indene-2,4′-piperidin]-3-amine] was run?
**A.** ≥ 7.30

**Q.** With `COc1n[nH]c2nc(N3CCC4(CC3)Cc3ccccc3[C@H]4N)c(CO)nc12` [Example 158, {6-[(3S)-3-amino-1,3-dihydrospiro[indene-2,4′-piperidin]-1′-yl]-3-methoxy-1H-pyrazolo[3,4-b]pyrazin-5-yl}methanol] as the compound, how does the pIC50 read?
**A.** ≥ 7.30
